# Entries after “also recorded” stand apart in the source; their conditions may differ.
# How the values were obtained:
# [1] = target: T1, dopamine receptor subtype D2S (Homo sapiens, UniProt P14416); test: cAMP inhibition assay: inhibition of forskolin-stimulated cAMP accumulation (CAMYEL BRET sensor); assay type: cell-based; design: expressed in transfected cells; host or cells: HEK293T cells, transient co-transfection with the CAMYEL sensor; conditions: for Emax / Inhibition of forskolin-stimulated cAMP accumulation Emax (%): maximum effect relative to the effect of quinpirole
# T1 sequence (P14416 1-414 isoform P14416-2): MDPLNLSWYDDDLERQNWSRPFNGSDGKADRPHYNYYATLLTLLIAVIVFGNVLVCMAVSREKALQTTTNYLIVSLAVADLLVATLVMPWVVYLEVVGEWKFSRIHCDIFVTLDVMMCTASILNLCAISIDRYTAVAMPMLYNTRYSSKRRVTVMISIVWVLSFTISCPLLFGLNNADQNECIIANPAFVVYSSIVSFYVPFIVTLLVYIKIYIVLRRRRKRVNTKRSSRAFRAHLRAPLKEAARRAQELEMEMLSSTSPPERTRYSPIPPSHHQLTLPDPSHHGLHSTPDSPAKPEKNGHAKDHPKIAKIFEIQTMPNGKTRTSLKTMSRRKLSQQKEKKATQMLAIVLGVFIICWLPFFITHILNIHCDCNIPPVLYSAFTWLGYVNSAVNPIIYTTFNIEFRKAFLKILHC
# Procedure: HEK293T cells were transiently co-transfected with pcDNA3L-His-CAMYEL[45] (purchased from ATCC, Manassas, VA via LGC Standards, Wesel, Germany) and D2s receptor, respectively, and the assay was performed according to literature. Twenty-four hours after transfection cells were split into white half-area 96-well plates at 2 × 10^5 cells/well and grown overnight in a phenol-red free medium supplemented with serum (Invitrogen, Darmstadt, Germany). On the day of measurement, the medium was removed and replaced by phosphate buffered saline (PBS). The cells were serum-starved for 1 h before treatment. The assay was started by adding 10 μL of coelenterazine-h (Promega, Mannheim, Germany) to each well to yield a final concentration of 5 μM. After 5 min of incubation, test compounds were added in PBS containing forskolin at a final concentration of 10 μM. After an incubation time of 15 min, BRET measurement was performed with a CLARIOstar plate reader (BMG LabTech, Ortenberg, Germany). […] Curves were normalised to basal BRET ratio obtained from dPBS (0%) and the maximum effect of the reference ligand quinpirole (100%).
# Data from cAMP measurements were analysed by normalising the BRET ratios with 0% for the unstimulated receptor and 100% for the full effect of the reference ligand quinpirole. Dose-response curves were calculated by nonlinear regression using the algorithms of PRISM 6.0.
# (§1) From each curve, a set of mean values was derived and pooled to result in an average curve showing the EC50 and Emax value, respectively.
# [2] = target: T1, dopamine receptor subtype D2S; test: β-Arrestin-2 recruitment assay (PathHunter), agonist and antagonist mode; assay type: cell-based; design: expressed in transfected cells; conditions: for Emax: D2S-mediated recruitment of β-arrestin-2, PathHunter assay, relative to the maximum effect of quinpirole; for β-arrestin recruitment (in words): agonist mode
# Procedure: The measurement of β-arrestin-2 recruitment stimulated by D2R activation was performed using the PathHunter® assay purchased from DiscoveRx (Birmingham, U.K.) according to the manufacturer’s protocol as described previously.
# The amount of recruitment of β-arrestin was derived from the agonist-induced increase of chemiluminescence, which was expressed in counts per second (cps). Dose-response curves were normalised to basal cps stimulated by buffer (=0%) and the effect of the maximum effect of the reference compound quinpirole (=100%).
# as §1
# [3] = target: T2, human dopamine D2L receptor (Homo sapiens, UniProt P14416); test: Radioligand binding assay with [3H]spiperone, membranes of CHO cells stably expressing the receptor; conditions: for binding affinity (in words): D2R radioligand binding
# T2 sequence (P14416 whole entry): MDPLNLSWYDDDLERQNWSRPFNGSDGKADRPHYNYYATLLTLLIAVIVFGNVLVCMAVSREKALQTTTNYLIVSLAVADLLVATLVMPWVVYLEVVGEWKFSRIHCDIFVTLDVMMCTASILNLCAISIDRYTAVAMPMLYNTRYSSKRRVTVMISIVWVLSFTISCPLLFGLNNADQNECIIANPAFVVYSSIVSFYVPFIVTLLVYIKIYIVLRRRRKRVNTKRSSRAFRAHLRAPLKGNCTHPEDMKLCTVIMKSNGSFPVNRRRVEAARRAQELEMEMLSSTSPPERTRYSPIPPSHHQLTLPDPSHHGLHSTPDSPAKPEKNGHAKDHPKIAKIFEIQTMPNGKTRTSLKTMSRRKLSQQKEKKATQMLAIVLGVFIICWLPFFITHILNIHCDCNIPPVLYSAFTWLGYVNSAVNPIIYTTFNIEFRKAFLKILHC
# Procedure: (§2) Receptor binding studies were carried out as described previously[43][44].
# (§3) The resulting competition curves of the receptor binding experiments were analysed by nonlinear regression using the algorithms in PRISM 6.0 (GraphPad Software, San Diego, CA). […] IC50 values were transformed to Ki values according to the equation of Cheng and Prusoff[48].
# [4] = target: T2, human dopamine D2L receptor; test: biochemical
# Procedure: as §2, §3
structure (smiles),measurement,setting,value
CC(=O)OC1C(C)CN(C)C2Cc3c[nH]c4cccc(c34)C12 (stereo not shown) [Fumigaclavine A],EC50,[1],0.25 µM
same,agonist activity in the cAMP accumulation assay / Gi/o activation (in words),[1]; D2S expressed in HEK cells,weak partial agonists
same,agonist activity in the cAMP accumulation assay / Gi/o activation (in words),"[1]; D2S expressed in HEK cells, listed as fumigaclavine A",partial agonism in Gi/o activation
same,Emax,[2],< 7%
same,β-arrestin recruitment (in words),[2],did not show β-arrestin recruitment
same,Ki,[3],1.1 µM
same,Ki value relative to the endogenous ligand dopamine,[3]; D2L radioligand binding,seven times higher
"O=C(O)c1cn(-c2ccc(F)cc2)c2cc(N3CCNCC3)c(F)cc2c1=O [Sarafloxacin, reference compound]",Ki,[4],> 100 µM
"CC[C@H]1CN2CCc3cc(OC)c(OC)cc3[C@@H]2C[C@@H]1C[C@H]1NCCc2cc(OC)c(OC)cc21 [Emetine, reference compound]",Ki,[3],37 µM
NCc1cc(=O)[nH]o1 [Muscimol],Ki,[3],> 100 µM
CC(Cc1ccc(C(C)(C)C)cc1)CN1C[C@@H](C)O[C@@H](C)C1 (stereo partly shown) [Fenpropimorph],Ki,[3],> 100 µM
COc1cc(C(=O)OCCCCNC(=N)N)cc(OC)c1O [Leonurine],Ki,[4],> 100 µM
Oc1cc(O)c2cc(O)c(-c3cc(O)c(O)c(O)c3)[o+]c2c1 [Delphinidin],Ki,[4],26 µM
same,Emax,[2],< 7%
"N=C(N/N=C/c1ccc(Cl)cc1)N/N=C/c1ccc(Cl)cc1 [Robenidine, reference compound]",Ki,[4],5.4 µM
same,agonist activity in the cAMP accumulation assay / Gi/o activation (in words),[1]; D2S expressed in HEK cells,could not observe any activation; also recorded: did not show any activation
same,Emax,"[1]; HEK293, D2S expressed in HEK cells, read-out: Inhibition of forskolin-stimulated cAMP accumulation Emax (%)",< 5%
same,Emax,[2],< 7%
same,β-arrestin recruitment (in words),[2],could not observe any activation; also recorded: did not show any activation
same,binding affinity (in words),[3],low micromolar range
"CC(C)(C)NCC(O)c1cc(Cl)c(N)c(Cl)c1 (stereo not shown) [Clenbuterol, reference compound]",Ki,[3],50 µM
C=CC(C)(C)[C@@]12C[C@H]3C(=O)N/C(=C/c4c[nH]cn4)C(=O)N3[C@@H]1Nc1ccccc12 [Roquefortine C],Ki,[4],> 100 µM
COc1ccc2c(c1OC)CN1CCc3cc4c(cc3C1=C2)OCO4 [Dihydroberberine],Ki,[4],75 µM
CN(C)CCc1ccc(O)cc1 [Hordenine],EC50,[1],3.7 µM
same,agonist activity in the cAMP accumulation assay / Gi/o activation (in words),[1]; D2S expressed in HEK cells,shows agonist properties; also recorded: almost full D2R-agonist in Gi/o activation
same,Emax,"[1]; HEK293, read-out: Inhibition of forskolin-stimulated cAMP accumulation Emax (%), D2S expressed in HEK cells",76%
same,Emax,[2],< 7%
same,β-arrestin recruitment (in words),[2],did not show significant β-arrestin recruitment; also recorded: no β-arrestin-2 recruitment was determined
same,antagonism of quinpirole-stimulated β-arrestin-2 recruitment (in words),"[2]; antagonist mode: 30 min pre-incubation, then 300 nM quinpirole",antagonised D2-mediated β-arrestin recruitment; also recorded: antagonistic activity; also recorded: completely antagonised quinpirole-stimulated recruitment; also recorded: antagonism in β-arrestin recruitment
same,Ki,[3],13 µM
same,binding affinity (in words),[3],low micromolar range
CC1NCCc2cc(O)c(O)cc21 (stereo not shown) [Salsolinol],agonist activity in the cAMP accumulation assay / Gi/o activation (in words),[1]; D2S expressed in HEK cells,weak partial agonists; also recorded: partial agonism in Gi/o activation
same,Inhibition of forskolin-stimulated cAMP accumulation Emax (%),[1]; D2S expressed in HEK cells,21%
same,Inhibition of forskolin-stimulated cAMP accumulation Emax (%),"[1]; D2S expressed in HEK cells, listed as salsolinol",below 50%
same,Emax,[2],< 7%
same,β-arrestin recruitment (in words),[2],did not show β-arrestin recruitment
O=C(CCc1ccc(O)c(O)c1)NCCCNCCCCNCCCNC(=O)CCc1ccc(O)c(O)c1 [Kukoamine A],Ki,[4],> 100 µM
"O=C(CC1NCCCC1O)Cn1cnc2cc(Br)c(Cl)cc2c1=O (stereo not shown) [Halofuginone, reference compound]",Ki,[3],> 50 µM
COC(=O)C1=CO[C@@H](C)[C@H]2CN3CCc4c([nH]c5ccccc45)[C@@H]3C[C@H]12 [Ajmalicine],Ki,[4],> 100 µM
N[C@@H](CCCCn1c(C=O)ccc1CO)C(=O)O [Pyrraline],Ki,[4],> 100 µM

# — PMC5345022 (Scientific Reports, 2017)
